From patent US10253039B2, “Inhibitors of bacterial DNA gyrase with efficacy against gram-negative bacteria” (priority 2014, dated 2019)
Values after ≈ are worked out from the molar mass of the structure shown. Where two headings read alike, the source gives them in different places.

Key:
Format in all cases: cell-based
[1] = tested on: Staphylococcus epidermidis; test: MIC, 20-strain panel
In short: (§1)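 Inoculum 1:10000 (LB, log-phase subculture). Triplicate twofold dilutions plus DMSO column. 37° C., shaken, 16-18 h. Lowest non-turbid well = MIC. CLSI method.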

[2] = tested on: Salmonella enterica subsp. enterica typhimurium; test: MIC, 20-strain panel
In short: as §1

Shigella flexneri = test: MIC, 20-strain panel
In short: as §1

[3] = tested on: Staphylococcus aureus subsp. aureus; test: MIC, 20-strain panel; conditions: read-out: MIC
In short: as §1

[4] = tested on: Klebsiella pneumoniae subsp. pneumoniae; test: MIC, 20-strain panel
In short: as §1

E. coli JW5503 (deltolC) = test: MIC, 20-strain panel; conditions: Escherichia coli
In short: as §1

Streptococcus agalactiae = test: MIC, 20-strain panel
In short: as §1

E. coli MG1655 = test: MIC, 20-strain panel; conditions: Escherichia coli, read-out: MIC
In short: as §1

Streptococcus pyogenes = test: MIC, 20-strain panel
In short: as §1

[5] = tested on: Staphylococcus saprophyticus subsp. saprophyticus; test: MIC, 20-strain panel
In short: as §1

Edwardsiella tarda = test: MIC, microdilution in 96-well plates
In short: as §1

E. coli BW25113 = test: MIC, microdilution in 96-well plates; conditions: Escherichia coli, read-out: MIC
In short: as §1

[6] = F: Salmonella enterica subsp. enterica Typhimurium
[7] = H: Staphylococcus aureus subsp. aureus
[8] = E: Klebsiella pneumoniae subsp. pneumoniae
[9] = Salmonella enterica subsp. enterica Typhimurium
[10] = Staphylococcus aureus subsp. aureus
[11] = Klebsiella pneumoniae subsp. pneumoniae

SMILES	MIC [1] [µg/mL]	MIC [2, 6] [µg/mL]	MIC (Shigella flexneri; G: Shigella flexneri) [µg/mL]	MIC [3, 7] [µg/mL]	MIC [4, 8] [µg/mL]	MIC (E. coli JW5503 (deltolC); C: E. coli JW5503 (deltolC)) [µg/mL]	MIC (Streptococcus agalactiae) [µg/mL]	MIC (E. coli MG1655; MG1655, A: E. coli MG1655) [µg/mL]	MIC (Streptococcus pyogenes) [µg/mL]	MIC [5] [µg/mL]	MIC (Edwardsiella tarda; D: Edwardsiella tarda) [µg/mL]	MIC (E. coli BW25113; BW25113, B: E. coli BW25113) [µg/mL]	MIC [2, 9] [µg/mL]	MIC (Shigella flexneri) [µg/mL]	MIC [3, 10] [µg/mL]	MIC [4, 11] [µg/mL]	MIC (E. coli JW5503 (deltolC); E. coli JW5503 (deltolC)) [µg/mL]	MIC (E. coli MG1655; MG1655, E. coli MG1655) [µg/mL]	MIC (Edwardsiella tarda) [µg/mL]	MIC (E. coli BW25113; BW25113, E. coli BW25113) [µg/mL]
O=S(=O)(N[C@@H]1CCN(Cc2ccc(SC(F)(F)F)cc2)C1)c1cccc(C(F)(F)F)c1 [Compound 52]	> 8	> 8	> 8	> 8	> 8	4 (≈ 8.26 µM)	> 8	> 8	> 8	> 8	> 8	> 8								
O=S(=O)(N[C@@H]1CCN(Cc2ccc(OC3CCC3)cc2)C1)c1cccc(C(F)(F)F)c1 [Compound 5]	> 8	8 (≈ 17.6 µM)	> 8	> 8	> 8	0.125 (≈ 0.275 µM)	> 8	> 8	> 8	> 8	> 8	~8 (≈ 17.6 µM)								
N#Cc1cccc(S(=O)(=O)N[C@@H]2CCN(Cc3ccc4c(c3)OCCO4)C2)c1 [Compound 9]	> 8	> 8	> 8	> 8	> 8	> 8	> 8	> 8	> 8	> 8	> 8	> 8								
COc1ccccc1-c1ccc(CN2CC[C@@H](NS(=O)(=O)c3cccc(OC(F)(F)F)c3)C2)cc1 [Compound 76]	> 8	> 8	> 8	> 8	> 8	8 (≈ 15.8 µM)	> 8	> 8	> 8	> 8	> 8	> 8								
CC(C)Oc1ccc(CN2CC[C@@H](NS(=O)(=O)c3ccc(C#N)nc3)C2)cc1 [Compound 138]	> 8						> 8		> 8	> 8			> 8	> 8	> 8	> 8	> 8	> 8	> 8	> 8
O=S(=O)(N[C@@H]1CCN(Cc2ccc(-c3ccccc3)cc2)C1)c1cncc(F)c1 [Compound 147]	> 8						> 8		> 8	> 8			> 8	> 8	> 8	> 8	8 (≈ 19.4 µM)	> 8	> 8	> 8
O=S(=O)(N[C@@H]1CCN(Cc2ccc(-c3ccccc3)cc2)C1)c1cc(Cl)cc(C(F)(F)F)c1 [Compound 110]	4 (≈ 8.08 µM)	> 8	> 8	> 8	> 8	> 8	> 8	> 8	8 (≈ 16.2 µM)	> 8	> 8	> 8								
N#Cc1cc(S(=O)(=O)N[C@@H]2CCN(Cc3ccc(-c4ccccc4)cc3)C2)ccc1Cl [Compound 120]	> 8	> 8	> 8	> 8	> 8	~8 (≈ 17.7 µM)	> 8	> 8	> 8	> 8	> 8	> 8								
N#Cc1cccc(S(=O)(=O)N[C@@H]2CCN(Cc3ccc(OCC(F)F)cc3)C2)c1 [Compound 8]	> 8	8 (≈ 19 µM)	> 8	> 8	> 8	2 (≈ 4.75 µM)	> 8	> 8	> 8	> 8	> 8	> 8								
Cc1ccc(C#N)cc1S(=O)(=O)N[C@@H]1CCN(Cc2ccc(OC(C)C)cc2)C1 [Compound 112]	> 8	4 (≈ 9.67 µM)	> 8	> 8	> 8	0.25 (≈ 0.605 µM)	> 8	> 8	> 8	> 8	> 8	> 8								
O=S(=O)(N[C@@H]1CCN(Cc2ccc(-c3ccccc3)cc2)C1)c1cc(C(F)(F)F)cc(C(F)(F)F)c1 [Compound 81]	8 (≈ 15.1 µM)	> 8	> 8	> 8	> 8	> 8	> 8	> 8	~8 (≈ 15.1 µM)	> 8	> 8	> 8								
O=S(=O)(N[C@@H]1CCN(Cc2ccc(-c3ccccc3)cc2)C1)c1cc(C(F)(F)F)ccc1Cl [Compound 47]	~8 (≈ 16.2 µM)	~8 (≈ 16.2 µM)	> 8	> 8	> 8	1 (≈ 2.02 µM)	> 8	> 8	~8 (≈ 16.2 µM)	> 8	> 8	> 8								
CSc1ccc(CN2CC[C@@H](NS(=O)(=O)c3cccc(C(F)(F)F)c3)C2)cc1 [Compound 86]	> 8	> 8	> 8	> 8	> 8	4 (≈ 9.29 µM)	> 8	> 8	> 8	> 8	> 8	> 8								
O=S(=O)(N[C@@H]1CCN(Cc2ccc(-c3ccccc3Cl)cc2)C1)c1cccc(C(F)(F)F)c1 [Compound 69]	4 (≈ 8.08 µM)	> 8	> 8	> 8	> 8	8 (≈ 16.2 µM)	> 8	> 8	~8 (≈ 16.2 µM)	> 8	> 8	> 8								
O=S(=O)(N[C@@H]1CCN(Cc2ccc(-n3cccn3)cc2)C1)c1cccc(OC(F)(F)F)c1 [Compound 21]	2 (≈ 4.29 µM)	> 8	> 8	8 (≈ 17.1 µM)	> 8	2 (≈ 4.29 µM)	> 8	> 8	> 8	> 8	> 8	> 8								
O=S(=O)(N[C@@H]1CCN(Cc2ccc(OCC(F)F)cc2)C1)c1cccc(C(F)(F)F)c1 [Compound 64]	> 8	4 (≈ 8.61 µM)	> 8	> 8	> 8	0.25 (≈ 0.538 µM)	> 8	> 8	> 8	> 8	> 8	> 8								
Cc1ccc(C(F)(F)F)cc1S(=O)(=O)N[C@@H]1CCN(Cc2ccc(OC(C)C)cc2)C1 [Compound 183]	> 8						> 8		> 8	> 8			8 (≈ 17.5 µM)	> 8	> 8	> 8	0.5 (≈ 1.1 µM)	> 8	> 8	> 8
O=S(=O)(N[C@@H]1CCN(Cc2ccc(-c3ccccc3)cc2)C1)c1cc(C(F)(F)F)ccc1F [Compound 114]	~8 (≈ 16.7 µM)	4 (≈ 8.36 µM)	> 8	> 8	> 8	1 (≈ 2.09 µM)	> 8	> 8	~8 (≈ 16.7 µM)	> 8	> 8	> 8								
O=S(=O)(N[C@@H]1CCN(Cc2ccc(OC(F)(F)F)cc2)C1)c1cccc(OC(F)(F)F)c1 [Compound 51]	> 8	> 8	> 8	> 8	> 8	4 (≈ 8.26 µM)	> 8	> 8	> 8	> 8	> 8	> 8								
N#Cc1cccc(S(=O)(=O)N[C@@H]2CCN(Cc3ccc(OC4CCOCC4)cc3)C2)c1 [Compound 54]	> 8	8 (≈ 18.1 µM)	> 8	> 8	> 8	2 (≈ 4.53 µM)	> 8	> 8	> 8	> 8	> 8	> 8								
N#Cc1cccc(S(=O)(=O)N[C@@H]2CCN(Cc3ccc(OC4CCC4)cc3)C2)c1 [Compound 109]	> 8	8 (≈ 19.4 µM)	> 8	> 8	> 8	0.5 (≈ 1.21 µM)	> 8	> 8	> 8	> 8	> 8	> 8								
CC(C)Oc1ccc(CN2CC[C@@H](NS(=O)(=O)c3ccc(Cl)cn3)C2)cc1 [Compound 149]	> 8						> 8		> 8	> 8			> 8	> 8	> 8	> 8	> 8	> 8	> 8	> 8
